US5658885A, “Amidino and guanidino substituted boronic acid inhibitors of trypsin-like enzymes” (The DuPont Merck Pharmaceutical Company, priority 1994, dated 1997)
Counter-ions that a name gives are not always drawn.

What was measured:
[1] = molecular target: T1, human thrombin (Homo sapiens, UniProt P00734); test: Inhibition of thrombin hydrolysis of chromogenic substrate S2238 (Ki); assay type: biochemical; details: S2238, pH 7.5
T1 construct: 0.2-0.5 nM human thrombin or human factor Xa; purchased Enzyme Research Laboratories, South Bend, Ind
Description: (§1) The effectiveness of compounds of the present invention as inhibitors of blood coagulation proteases was determined using purified human proteases and synthetic substrates following procedures similar to those described in Kettner et al. (1990).
(§2) For these assays, the rate of enzymatic (thrombin, Factor Xa, and Factor VIIa) hydrolysis of chromogenic substrates (S2238 (H-D-Phe-Pip-Arg-pNA), S2222, and S2288, respectively; Kabi Pharmacia, Franklin, Ohio) was measured both in the absence and presence of compounds of the present invention. […] A decrease in the rate of absorbance change at 405 nm in the presence of inhibitor is indicative of enzyme inhibition. The results of this assay are expressed as inhibitory constant, Ki.
(§3) Thrombin and Xa determinations were made in 0.10M sodium phosphate buffer, pH 7.5, containing 0.20M NaCl, and 0.5% PEG 8000. VIIa determinations were made in 0.05M tris buffer, pH 7.6, containing 0.10M NaCl, 4 mM CaCl2, and 0.1% bovine serum albumin.
(§4) Reactions were allowed to go for 30 minutes and the velocities (rate of absorbance change vs time) were measured in the time frame of 25-30 minutes. The following relationship was used to calculate Ki values. [formula] where: vo is the velocity of the control in the absence of inhibitor;
(§5) vs is the velocity in the presence of inhibitor;
(§6) I is the concentration of inhibitor;
(§7) Ki is the dissociation constant of the enzyme: inhibitor complex;
(§8) S is the concentration of substrate;
(§9) Km is the Michaelis constant.

[2] = molecular target: T2, human factor Xa (Homo sapiens, UniProt P00742); test: Inhibition of Factor Xa hydrolysis of chromogenic substrate S2222 (Ki); assay type: biochemical; details: S2222, pH 7.5
T2 construct: 0.2-0.5 nM human thrombin or human factor Xa; purchased Enzyme Research Laboratories, South Bend, Ind
Description: as §1, §2, §3, §4, §5, §6, §7, §8, §9

[3] = molecular target: T3, human factor VIIa (Homo sapiens, UniProt P08709); test: Inhibition of Factor VIIa hydrolysis of chromogenic substrate S2288 (Ki); assay type: biochemical; details: S2288, pH 7.6
T3 construct: 50 nM human factor VIIa (BiosPacific, Emeryville, Calif.); purchased BiosPacific, Emeryville, Calif
T3 sequence (P08709 213-466 limits assumed): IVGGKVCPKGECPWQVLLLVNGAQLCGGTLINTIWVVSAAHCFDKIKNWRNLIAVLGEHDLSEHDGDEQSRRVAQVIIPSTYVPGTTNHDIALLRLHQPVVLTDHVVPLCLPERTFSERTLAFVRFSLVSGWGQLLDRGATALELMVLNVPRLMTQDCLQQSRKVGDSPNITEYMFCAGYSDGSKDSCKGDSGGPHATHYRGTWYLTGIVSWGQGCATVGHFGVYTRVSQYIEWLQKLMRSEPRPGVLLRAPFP
T3 sequence (P08709 61-212 limits assumed): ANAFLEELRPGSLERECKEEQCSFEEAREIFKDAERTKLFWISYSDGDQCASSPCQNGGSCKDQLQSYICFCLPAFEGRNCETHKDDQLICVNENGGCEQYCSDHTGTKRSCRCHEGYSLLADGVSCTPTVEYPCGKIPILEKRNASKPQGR
Description: as §1, §2, §3, §4, §5, §6, §7, §8, §9

[4] = system: thrombin clotting times; test: Thrombin clotting time, concentration for 2-fold increase; assay type: biochemical; details: 2-fold increase of thrombin clotting time
[5] = system: activated partial thromboplastin time; test: Anticoagulant effect in vivo: prolongation of activated partial thromboplastin time of blood samples after dosing; set-up: species or system conscious dogs or anesthetized rats; details: 0.5 to 10 mg/kg, dogs or rats
Description: Arterial or venous blood was withdrawn by syringe and mixed with 1/10 volume 3.2% sodium citrate. Plasma was obtained after centrifugation and a standard clinical activated partial thromboplastin time (APTT reagent, Sigma Chemical Co., St. Louis, Mo.) determined at 37° C. in a fibrometer.

T2 sequence (P00742 235-488 limits assumed): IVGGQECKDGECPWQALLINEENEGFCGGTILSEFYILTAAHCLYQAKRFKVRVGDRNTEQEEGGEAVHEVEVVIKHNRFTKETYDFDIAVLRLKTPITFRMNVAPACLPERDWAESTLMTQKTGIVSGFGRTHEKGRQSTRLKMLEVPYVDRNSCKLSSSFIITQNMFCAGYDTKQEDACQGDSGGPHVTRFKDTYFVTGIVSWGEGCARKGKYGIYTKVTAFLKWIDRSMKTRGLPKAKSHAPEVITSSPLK
T2 sequence (P00742 41-179 limits assumed): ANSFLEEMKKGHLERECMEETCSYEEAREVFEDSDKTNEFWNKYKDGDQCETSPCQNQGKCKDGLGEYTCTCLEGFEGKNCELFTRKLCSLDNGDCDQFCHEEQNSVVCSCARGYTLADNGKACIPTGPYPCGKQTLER

Row | Molecule | Ki [1] [nM] | Ki [2] [nM] | Ki [3] [nM] | concentration that increased thrombin clotting times 2-fold [4] [µM] | anticoagulant response (at least doubling of activated partial thromboplastin time vs. pre-dose) ([5]; i.v. dosing) | anticoagulant response (at least doubling of activated partial thromboplastin time vs. pre-dose) ([5]; oral dosing)
1 | Cl.N=CNCCCC(NC(=O)C1CCCN1C(=O)C(Cc1ccccc1)NC(=O)OCc1ccccc1)B(O)O (stereo not drawn) [Example 77, Z--(D)Phe--Pro--boroOrn(CH=NH)--OH.HCl] | – | – | – | – | effective | –
2 | CC1(C)C2CC3OB(C(Cc4cccc(C#N)c4)NC(=O)[C@@H]4CCCN4C(=O)[C@@H](Cc4ccccn4)NS(C)(=O)=O)OC3(C)C1C2 (stereo partly drawn) [Example 39, Ms--(D)2-Pyridylalanine-Pro--boroPhe(m-CN)--C10 H16] | < 500 | < 500 | < 500 | – | – | –
3 | CC(=O)N[C@H](Cc1ccccc1)C(=O)N1CCC[C@H]1C(=O)N[C@@H](Cc1cccc(C#N)c1)B(O)O [Example 23, Ac--(D)Phe--Pro--boroPhe--(m-CN)--OH.HCl] | < 500 | < 50000 | < 500 | – | – | –
4 | CNC(Cc1ccccc1)C(=O)N1CCCC1C(=O)NC(Cc1cccc(C#N)c1)B1OC2CC3CC(C3(C)C)C2(C)O1 (stereo not drawn) [Example 25, N--CH3 --(D)Phe--Pro--boroPhe(m-CN)--C10 H16.HCl] | < 500 | < 500 | – | – | – | –
5 | CC(=O)N[C@H](Cc1ccccc1)C(=O)N1CCCC1C(=O)NC(CC1CCC(N)CC1)B1OC2CC3CC(C3(C)C)C2(C)O1 (stereo partly drawn) [Example 124] | < 500 | < 50000 | – | – | – | –
6 | CN(C)C(Cc1ccccc1)C(=O)N1CCCC1C(=O)NC(Cc1cccc(C#N)c1)B(O)O (single isomer, unassigned; isomer i) [Example 20, N,N-(CH3)2 --(D)Phe--Pro--boroPhe--(m-CN)--OH.HCl (ISOMER I)] | < 500 | < 500 | – | – | – | –
7 | CS(=O)(=O)N[C@H](Cc1ccc(F)cc1)C(=O)N1CCC[C@H]1C(=O)N[C@@H](CCCNC=N)B(O)O.Cl [Example 60, Ms--(D)Phe(4-fluoro)-Pro--boroOrn(CH=NH)--OH.HCl] | < 500 | – | – | – | – | effective
8 | CC(=O)NC(Cc1ccccc1)C(=O)N1CCCC1C(=O)NC(Cc1cccc(C#N)c1)B1OC2CC3CC(C3(C)C)C2(C)O1 (stereo not drawn) [Example 11, Ac--(D)Phe--Pro--boroPhe--(m-CN)--C10 H16] | < 500 | < 50000 | < 500 | 0.60 | – | –
9 | Ms--(D)Phe--Pro--boroArg(CH3)--OH.HCl [Example 56] | < 500 | – | – | – | – | effective

More lines, main results first:

Row | Ki [1] [nM] | Ki [2] [nM] | Ki [3] [nM] | Molecule | concentration that increased thrombin clotting times 2-fold [4] [µM] | anticoagulant response (at least doubling of activated partial thromboplastin time vs. pre-dose) ([5]; i.v. dosing) | anticoagulant response (at least doubling of activated partial thromboplastin time vs. pre-dose) ([5]; oral dosing)
10 | < 500 | < 500 | – | Ms--(D)Phe--Pro--boroPhe(m-CN)--OH.HCl [Example 24] | – | – | –
11 | < 500 | < 500 | < 500 | Boc--(D)Phe--Pro--boroOrn(CH=NH)]--OH.0.6 HCl.0.4 BSA [Example 7] | < 0.075 | – | –
12 | < 500 | – | – | H--(D)Phe--Pro--boroOrn(CH=NH)]--OH.0.65 HCl.0.35 BSA [Example 9] | 0.10 | – | –
13 | < 500 | < 50000 | – | CC1(C)C2CC3OB(C(CCCNC(N)=O)NC(=O)C4CCCN4C(=O)C(Cc4ccccc4)NS(=O)(=O)Cc4ccccc4)OC3(C)C1C2 (stereo not drawn) [Example 110, PhCH2 SO2 --(D)Phe--Pro--boroOrn(CONH2)--C10 H16] | – | – | –
14 | < 500 | – | – | CC(=O)NC(Cc1ccccc1)C(=O)N1CCCC1C(=O)NC(Cc1cccc(C(=N)N)c1)B1OC2CC3CC(C3(C)C)C2(C)O1.O=S(=O)(O)c1ccccc1 (stereo not drawn) [Example 12, Ac--(D)Phe--Pro--boroPhe--(m-C(NH)NH2)--C10 H16.BSA] | 0.85 | – | –
15 | < 500 | – | – | CS(=O)(=O)N[C@H](Cc1ccccc1)C(=O)N1CCC[C@H]1C(=O)N[C@@H](CCCNC=N)B(O)O.Cl [Example 57, Ms--(D)Phe--Pro--boroOrn(CH=NH)--OH.HCl] | – | effective | effective
